Experimental data reported in patent publication US20110281933A1, “METHODS AND COMPOSITIONS FOR THE MANAGEMENT OF CARDIOVASCULAR DISEASE WITH OLIGONUCLEOTIDES” (Saint Louis University, priority 2010, published 2011).

What was measured:
miR-33 [1] = test: Reverse cholesterol transport with [3H]-cholesterol-loaded macrophages (Example 10); type: in vivo, C57BL/6 mice; settings: 5 mpk
Procedure: (A) Percentage of total injected dpm in the plasma of mice treated with scrambled or anti-miR-33 oligonucleotides (5 mpk, twice a week for 2 weeks), at 6, 24 at 48 h post-injection of [3H]-cholesterol-acLDL-loaded macrophages. *P<0.05 (unpaired T-test): **P<0.01 (unpaired T-test). (B) Percentage of total injected dpm in the liver of the same mice. (C) Percentage of total injected dpm in the be recovered from the gallbladder of the same mice. **P<0.01 (unpaired T-test). (D) Percentage of total injected dpm in the feces of the same mice. **P<0.01 (unpaired T-test).
(§1) Murine Studies. Male C57Bl/6J mice were obtained from Jackson Laboratories, and maintained in a 12 hour/12 hour light/dark cycle with unlimited access to chow and water. In examples 1-5, animals (n=6-8 per group) were infused with adenoviral vectors (2×10^9 pfu) via tail vein injection. Blood was collected 5 days post-infusion, and total cholesterol and HDL-cholesterol were assayed enzymatically with the Cholesterol E and HDL-cholesterol E kits from Waco Chemicals. In example 6-10 animals (8-10 week old, n=6 per group, unless noted otherwise) were infused via tail vein injection with adenoviral vectors (2×10^9 pfu) or antisense oligonucleotides (5 mpk, 2 consecutive days). Where indicated, mice were fed a 21% fat, 1% cholesterol, 0.5% cholate diet (Purina 5A8E). Tissues and bile were collected following overnight fasting. RCT experiments were performed as described 28. Briefly, mice were injected i.v. with oligonucleotides (5 mpk) twice for 2 weeks, and then injected i.p. with 1-1.5×10^6 [^3H]-cholesterol-loaded bone marrow-derived macrophages. Blood samples were collected at 6, 24 and 48 h after the injection of the cells. Liver, bile and the feces produced during the last 48 h were collected and flash-frozen until used. The amount of radiolabeled sterols was determined by scintillation. All studies involving mice were approved by the IACUC at Saint Louis University.
ANTI-miR-33 Treatment Results In Increased Reverse Cholesterol Transport. Biliary secretion is an essential component of the reverse cholesterol transport (RCT) pathway (Nijstad at al., (2011) Gastroenterology 140, 1043-1051) by which extrahepatic cholesterol is shuttled to the liver, secreted into bile and excreted through feces (Khera and Rader, (2010) Curr Atheroscler Rep 12, 73-81; Rader et al., (2009) J Lipid Res 50 Suppl, S189-194; Wang et al., (2007) J Clin Invest 117, 2216-2224; Wang and Rader, (2007) J Biol Chem 280, 8742-8747). An additional, liver-independent ROT pathway has been proposed that removes circulating cholesterol through the intestine directly into feces (van der Veen et al., (2009) J Biol Chem 284, 19211-19219). The inventor reasoned that the changes in be secretion observed following manipulation of miR-33 levels will result in altered RCT. […] Analysis of the bile recovered from the gallbladder confirmed that bile secretion is increased after suppression of miR-33 expression. […] Finally, the recovery of labeled sterols in the feces increased ˜2-fold in these same mice, compared to control animals (FIG. 8D).

miR-33 [2] = test: Silencing miR-33 rescues liver damage induced by simvastatin and cholate diet (Example 9); type: in vivo, mice
Source text: Samples were collected after 7 days on the diet, or when mice appeared moribund. […] (B) Percentage of body weight, compared to the initial mass of each animal. Data are shown as mean±SD. (C) Macroscopic appearance of livers. (D) Liver to total body mass ratios. […] (E) Appearance of plasma. […] (G) Relative expression of hepatic canalicular transporters (upper panel) and other genes involved in bile acid and sterol homeostasis (bottom panel).
(§2) RNA and protein analysis. RNA was isolated from cells with Trizol reagent, using a slight modification of the manufacturer's protocol to preserve miRNAs. Briefly, following homogenization in 2 mL of Trizol, […] of chloroform and […] if 2 mol/L sodium acetate pH 4.2 were added before the separation of the organic and aqueous phases. The latter was combined with […] of acid phenol:chloroform:[…], and centrifuged again. RNAs in the aqueous phase was then precipitated with 3 mL of ethanol overnight at 4° C. After centrifugation, the RNA pellet was resuspended in water and stored at −80° C. until use. Alternatively, RNAs were isolated using the mirVana miRNA Isolation Kit (Ambion). cDNAs were generated from 5 μg of DNase1-treated RNA using Superscript III and Random hexamers (Invitrogen). Real-time PCR was done with Sybr green reagent (Roche), using a LightCycler 480 real-time PCR detection system (Roche). Values were normalized to GAPDH and calculated using the comparative CT method. Protein levels were determined by Western blot, using 50 ug total liver protein extract, and a 1:1,000 dilution of anti-ABCA1 antibody (Novus Biologicals), following standard protocols.
as §1, with “In examples 1-5, animals (n=6-8 per group) were infused with adenoviral vectors (2×10^9 pfu) via tail vein injection.” left out, “In example 6-10 animals (8-10 week old, n=6 per group, unless noted otherwise) were infused via tail vein injection with adenoviral vectors (2×10^9 pfu) or antisense oligonucleotides (5 mpk, 2 consecutive days). Where indicated, mice were fed a 21% fat, 1% cholesterol, 0.5% cholate diet (Purina 5A8E).” left out
Similarly bile and plasma were extracted in the presence of internal standards for each lipid class. Id.
The inventor next tested whether silencing miR-33 could rescue mammals with statin induced ERIC or cholestasis. […] Finally, the inventor studied the mRNA levels of selected hepatic genes (FIG. 10G).

miR-33 [3] = test: Bile secretion in vivo after anti-miR-33 (Example 6); design: species or system mice; settings: 5 mpk i.v.
Source text: (A) Pooled bile recovered from the gallbladder of mice (n=5) injected with scrambled or anti-miR-33 oligonucleotides (5 mpk, i.v.) for 2 consecutive days. Mice were then kept for 7 days and fasted overnight before sample collection. (B) Levels of phosphatidylcholine (PC), cholesterol (chol) and bile acids present in pooled bile. (C) Relative expression of hepatic canalicular transporters in mice (n=5) following silencing of miR-33. Data are shown as mean±SD. *P<0.05 (unpaired T-test).
as §2, §1
Anti-miR-33 increases bile secretion in vivo. In an effort to understand the in vivo physiological importance of miR-33, the inventor injected mice with (5 mpk) of locked nucleic acid (LNA) scrambled sequence or LNA anti-miR-33 oligonucleotides 5-[…]-3′ (SEQ ID NO: 8) in saline (0.9% NaCl) via tail vein injection, at 5 mg/Kg (mpk) body weight. Mice were then kept with unlimited access to water and regular chow for a week. The amount of bile collected from the gallbladders of fasted mice receiving anti-miR-33 oligonucleotides was almost double of that collected from control mice (FIG. 6A). […] Next, the inventor tested the expression of several hepatocyte canalicular transporters that are known to mediate bile secretion.

[4] = test system: C57BL/6 mice on 1% cholesterol, 0.5% cholate diet; test: Simvastatin and cholate diet induced liver damage (Example 8); type: in vivo; settings: 50 mpk simvastatin vs saline
miR-33 [5] = test: miR-33 silencing in vivo: hepatic ABCA1 and plasma HDL-cholesterol (Example 4); design: species or system C57BL/6 mice; settings: 5 mg/Kg/day for 3 consecutive days, vs scrambled
Procedure: as §2
Murine Studies. Male C57Bl/6J mice were obtained from Jackson Laboratories, and maintained in a 12 hour/12 hour light/dark cycle with unlimited access to chow and water. In examples 1-5, animals (n=6-8 per group) were infused with adenoviral vectors (2×10^9 pfu) via tail vein injection. […] In example 6-10 animals (8-10 week old, n=6 per group, unless noted otherwise) were infused via tail vein injection with adenoviral vectors (2×10^9 pfu) or antisense oligonucleotides (5 mpk, 2 consecutive days). […] The amount of radiolabeled sterols was determined by scintillation. […]
miR-33 modulation of physiological sterol homeostasis in vivo. To put these latter results in a physiological context, scrambled or anti-miR-33 oligonucleotides were injected into the tail veins of C57BL/6 mice (5 mg/Kg/day for 3 consecutive days), and plasma lipoprotein and cholesterol levels determined 12 days after the infusion.

[6] = 150 mpk simvastatin and cholate diet
[7] = mice that survived at the end of the experiment, vs scrambled

5′-TGCAACTACAATGCA-3′ (LNA modifications, further chemistry not given here; listed as Homo sapiens) [LNA anti-miR-33 oligonucleotide, locked nucleic acid antisense oligonucleotide targeted to both miR-33 and miR-33 preRNA]
bile secretion (bile recovered from the gallbladder) (miR-33 [1]): is increased
changes in body, liver or feces mass (miR-33 [1]): did not observe changes
amount of labeled cholesterol in circulation (miR-33 [1]; 6, 24, 48 h, vs control animals): increased
amount of labeled sterols found in the liver (miR-33 [1]; 48 h): did not statistically differ
contents of labeled biliary sterols (dpm/μL of bile), increase (miR-33 [1]; corrected for volume): 2 fold
recovery of labeled sterols in the feces, increase (miR-33 [1]; feces of last 48 h, vs control animals): ~2 fold
survival (miR-33 [2]; 5 mpk i.v. two consecutive doses, then 150 mpk simvastatin and cholate diet, n=10): with one exception, all mice receiving anti-miR-33 oligonucleotides survived for at least a week
appearance of livers (miR-33 [2]; [6]): appeared normal
appearance of plasma (miR-33 [2]; [6]): appeared clear
hepatic free fatty acids, diglycerides, triglycerides and bile acids (miR-33 [2]; 150 mpk simvastatin and cholate diet, vs control animals): marked decrease
loss of body weight (miR-33 [2]; 150 mpk simvastatin and cholate diet, vs scrambled): minimal loss
hepatic expression of Atp8b1 (miR-33 [2]; [7]): increased expression
increased hepatic expression of Abcb11 or any other canalicular transporter (miR-33 [2]; [7]): not
liver/body mass ratio (miR-33 [2]; vs control mice that succumbed to the diet and statin treatment): significantly lower
amount of bile collected from the gallbladders (miR-33 [3]; fasted mice after a week, vs control mice): almost double
Abcb11 mRNA levels in liver (miR-33 [3]; vs scrambled): significantly increased
Atp8b1 mRNA levels in liver (miR-33 [3]; vs scrambled): significantly increased
concentration of phosphatidylcholine in bile (miR-33 [3]; vs scrambled): slightly elevated
mRNA levels of other canalicular transporters (Abcg5, Abcg8, Abcb4) in liver (miR-33 [3]; vs scrambled): remained unchanged
overall content of bile acids in pooled bile (miR-33 [3]; vs scrambled): did not change
overall content of cholesterol in pooled bile (miR-33 [3]; vs scrambled): did not change

CCC(C)(C)C(=O)O[C@H]1C[C@@H](C)C=C2C=C[C@H](C)[C@H](CC[C@@H]3C[C@@H](O)CC(=O)O3)[C@H]21 [simvastatin]
reduction of hepatic Abcb11 levels [4]: ~40%

anti-miR-33 oligonucleotides: anti-miR-33 oligonucleotides injected in Example 4; sequence and chemistry not stated there (antisense TGCAACTACAATGCA; LNA-modified, pattern not given here; listed as Homo sapiens)
increase in HDL-cholesterol (miR-33 [5]; 12 days after infusion): 10-15%
increase in hepatic ABCA1 mRNA levels (miR-33 [5]; tail vein): 2 fold
increase in hepatic ABCA1 protein levels (miR-33 [5]; tail vein): 2 fold
